Columns and labels:
[1] = tested on: mouse ileum; test: Ex vivo intestinal contractility; details: added to bath, concentration-dependent
[2] = tested on: cytoplasmic calcium; test: Fluo-4 fluorescence measurement of ATP-stimulated cytoplasmic calcium elevation; format: cell-based; details: 1 μM
[3] = target: T1, TMEM16A (Homo sapiens, UniProt Q5XXA6); test: Short-circuit current assay in TMEM16A-expressing FRT cells; format: cell-based; details: Figure S2A
T1 sequence (Q5XXA6 1-986): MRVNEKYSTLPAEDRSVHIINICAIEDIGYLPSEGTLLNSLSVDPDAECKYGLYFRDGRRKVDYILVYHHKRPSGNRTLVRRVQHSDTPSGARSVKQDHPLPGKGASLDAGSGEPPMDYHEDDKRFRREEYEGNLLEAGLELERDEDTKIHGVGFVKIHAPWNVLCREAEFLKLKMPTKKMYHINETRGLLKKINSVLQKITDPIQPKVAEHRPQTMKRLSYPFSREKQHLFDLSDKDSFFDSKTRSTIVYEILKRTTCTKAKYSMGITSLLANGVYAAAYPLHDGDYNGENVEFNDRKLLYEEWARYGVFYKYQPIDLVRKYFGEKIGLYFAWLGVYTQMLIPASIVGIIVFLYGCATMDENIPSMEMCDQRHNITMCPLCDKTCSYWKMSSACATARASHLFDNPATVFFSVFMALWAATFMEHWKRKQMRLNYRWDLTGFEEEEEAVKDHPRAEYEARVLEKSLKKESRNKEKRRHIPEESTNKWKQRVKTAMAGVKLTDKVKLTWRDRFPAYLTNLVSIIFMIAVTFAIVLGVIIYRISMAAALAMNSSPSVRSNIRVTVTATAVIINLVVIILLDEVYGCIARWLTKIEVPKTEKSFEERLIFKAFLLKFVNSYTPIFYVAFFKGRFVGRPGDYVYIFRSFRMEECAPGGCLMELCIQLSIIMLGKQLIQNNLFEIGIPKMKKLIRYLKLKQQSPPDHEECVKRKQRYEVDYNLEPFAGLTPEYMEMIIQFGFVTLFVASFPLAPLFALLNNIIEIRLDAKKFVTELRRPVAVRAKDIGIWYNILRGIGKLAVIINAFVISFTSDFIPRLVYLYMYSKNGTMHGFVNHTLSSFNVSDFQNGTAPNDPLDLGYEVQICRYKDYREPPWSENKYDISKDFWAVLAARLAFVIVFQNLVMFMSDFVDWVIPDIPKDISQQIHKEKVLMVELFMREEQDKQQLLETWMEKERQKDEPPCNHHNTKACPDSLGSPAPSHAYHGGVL

[4] = target: T1, TMEM16A; test: Patch clamp, inside-out membrane patches from TMEM16A-expressing FRT cells; format: cell-based
[5] = Shelf stability as solid or DMSO stock; format: physicochemical; details: as a solid or in DMSO stock solution

## Cc1ccccc1NC(=O)c1c(NC(=O)C(F)(F)Br)sc2c1CCCCC2 [Compound 10bm]
[1]
  spontaneous isometric contractions of ileum: strongly inhibited
[2]
  effect on ATP-stimulated cytoplasmic calcium: not altered
[3]
  ionomycin- and carbachol-activated chloride conductance: inhibited
[4]; 250 nM by perfusion, inside-out patch, free Ca2+ 305 nM
  effect on TMEM16A membrane currents: rapid inhibition of membrane currents
[4]; after 250 nM, washout
  recovery of membrane currents after washout: fully recovered following washout
[5]
  long-term shelf stability: > 6 months

— publication PMC5516794 (Journal of medicinal chemistry, 2017)
